pIC50: −log10 of the molar value.
Test system: MCF7
Experiment: Cytotoxicity against human MCF7 cells after 48 hrs by MTT assay
Type: functional, cell-based
Settings: MCF7, 48 h

Row | Structure (SMILES) | pIC50
1 | O=C1C(=O)c2cccnc2-c2ncccc21 | 6.24
2 | COC(=O)c1ccc2c(=O)c3c(O)cc(CCO)cc3oc2c1O | 5.57
3 | COC1=C(C)C(O)=CC2C(=O)c3c(ccc(OC)c3OC)C(=O)C12 (stereo not drawn) | 4.99
4 | COc1cc(C(=O)/C=C/c2cc3c([nH]c4ccccc43)c(-c3ccc(F)c(F)c3)n2)cc(OC)c1OC | 5.06
5 | COc1cc(O)c2c(c1O)C(=O)C1=C(C2=O)C(O)C(O)C(C)(O)C1 (stereo not drawn) | 5.12
6 | C=C[C@@]1(C)C=C2[C@@H](O[C@@H]3O[C@H](C)[C@H](O)[C@H](O)[C@H]3O)C[C@@H]3C(C)(C)[C@H](O[C@@H]4O[C@@H](C)[C@H](O)[C@@H](O)[C@H]4O[C@H]4O[C@H](C)[C@H](O)[C@H](O)[C@H]4O)CC[C@@]3(C)[C@@H]2CC1 | 5.33

Test system: A549
Experiment: Cytotoxicity against human A549 cells after 48 hrs by MTT assay
Type: functional, cell-based
Settings: Homo sapiens, A549, 48 h

Row | Structure (SMILES) | pIC50
7 | Cc1cnc2c(c1)C(=O)C1N=CC=CC1C2=O (stereo not drawn) | 5.43
8 | CCN(CC)CC1CCc2c(n(C)c3ccccc23)C1=O (stereo not drawn) | 7.15
9 | CC(C)c1cc2c(cc1O)[C@@]1(C)CCC[C@](C)(CO)[C@@H]1CC2 | 4.85
10 | C=C[C@@]1(C)C=C2[C@@H](O[C@@H]3O[C@H](C)[C@H](O)[C@H](O)[C@H]3O)C[C@@H]3C(C)(C)[C@H](O[C@@H]4O[C@@H](C)[C@H](O)[C@@H](O)[C@H]4OC(C)=O)CC[C@@]3(C)[C@@H]2CC1 | 4.98
11 | O=c1c2ccccc2oc2cc(O)ccc12 | 4.84
12 | COc1ccnc2c1C(=O)C1N=CC=C(c3ccccc3)C1C2=O (stereo not drawn) | 4.98
13 | COc1cc(C2=NN(C(C)=O)C(c3cc4c([nH]c5ccccc54)c(-c4ccc(F)c(F)c4)n3)C2)cc(OC)c1OC (stereo not drawn) | 4.96
14 | COc1cc(-c2nc(/C=C/C(=O)c3ccco3)cc3c2[nH]c2ccccc23)cc(OC)c1OC | 5.42
15 | Cc1cnc2c(c1)C(=O)C1N=CC=C(/C=C/C#N)C1C2=O (stereo not drawn) | 5.10
16 | CC(C)=CCc1c(O)c(CC=C(C)C)c2oc3ccc(O)cc3c(=O)c2c1O | 5.05
17 | COc1ccc(C(=O)/C=C/c2cc3c([nH]c4ccccc43)c(-c3ccc(F)c(OC)c3)n2)cc1 | 5.29
18 | CC(=O)N1N=C(c2ccco2)CC1c1cc2c([nH]c3ccccc32)c(-c2cccc(Cl)c2)n1 (stereo not drawn) | 4.81
19 | O=C(/C=C/c1cc2c([nH]c3ccccc32)c(-c2cccc(Cl)c2)n1)c1ccco1 | 4.73
20 | CN(Cc1ccccc1)CC1CCc2c(n(C)c3ccccc23)C1=O (stereo not drawn) | 4.85
21 | O=C1c2c(O)ccc(O)c2C(=O)c2c(NCCNCCO)ccc(NCCNCCO)c21 [MITOXANTRONE] | 5.14
22 | COc1ccc(C(=O)/C=C/c2cc3c([nH]c4ccccc43)c(-c3cc(OC)c(OC)c(OC)c3)n2)cc1 | 5.02
23 | O=C(/C=C/c1cc2c([nH]c3ccccc32)c(-c2ccc(F)c(F)c2)n1)c1ccco1 | 5.02
24 | Nc1ccc(C(=O)/C=C/c2cc3c([nH]c4ccccc43)c(-c3ccc(C(F)(F)F)cc3)n2)cc1 | 5.53

Row | Structure (SMILES) | pIC50
25 | Cc1cnc2c(c1)C(=O)C1N=CC=C(C=O)C1C2=O (stereo not drawn) | 6.48
26 | O=C1c2c(O)ccnc2C(=O)C2C(c3ccccc3)=CC=NC12 (stereo not drawn) | 4.84
27 | CC1CCN(CC2CCc3c(n(C)c4ccccc34)C2=O)CC1 (stereo not drawn) | 6.15
28 | O=C(/C=C/c1cc2c([nH]c3ccccc32)c(-c2ccc(F)cc2)n1)c1ccc(F)cc1 | 5.25
29 | CC(=O)N1N=C(c2ccco2)CC1c1cc2c([nH]c3ccccc32)c(-c2ccc(C(F)(F)F)cc2)n1 (stereo not drawn) | 5.62
30 | CC1=CC2C(=O)c3nccc(I)c3C(=O)C2N=C1 (stereo not drawn) | 6.85
31 | CC(=O)N1N=C(c2ccc(N)cc2)CC1c1cc2c([nH]c3ccccc32)c(-c2ccc(F)c(F)c2)n1 (stereo not drawn) | 5.01
32 | CC1=CC2C(=O)c3nccc(Cl)c3C(=O)C2N=C1 (stereo not drawn) | 4.86
33 | COC(=O)c1c(O)ccc2oc3cc(C)cc(O)c3c(=O)c12 | 5.28
34 | Cc1cnc2c(c1)C(=O)C1C=CC=NC1C2=O (stereo not drawn) | 5.65
35 | CC1=CC2C(=O)c3nccc(N(C)C)c3C(=O)C2N=C1 (stereo not drawn) [listing 1 of 2 here] | 5.48
36 | O=C(/C=C/c1cc2c([nH]c3ccccc32)c(-c2ccc(F)c(F)c2)n1)c1cccs1 | 5.17
37 | COC(=O)c1ccc2c(=O)c3c(OC)cc(CCO)cc3oc2c1O | 5.32
38 | CC(=O)N1N=C(c2ccc(N)cc2)CC1c1cc2c([nH]c3ccccc32)c(-c2ccc(C(F)(F)F)cc2)n1 (stereo not drawn) | 4.88
39 | COc1cc(-c2nc(C3CC(c4ccco4)=NN3C(C)=O)cc3c2[nH]c2ccccc23)cc(OC)c1OC (stereo not drawn) | 5.49
40 | CC(C)(O)c1ccc2c(c1)C(=O)C[C@H]1C(C)(C)CCC[C@]21C | 4.85
41 | COc1ccc(C(=O)/C=C/c2cc3c([nH]c4ccccc43)c(-c3ccc(F)cc3)n2)cc1 | 5.07
42 | O=C(/C=C/c1cc2c([nH]c3ccccc32)c(-c2ccc(C(F)(F)F)cc2)n1)c1ccco1 | 5.59

Same assay, conditions: a549

Row | Structure (SMILES) | pIC50
43 | CC1=CC2C(=O)c3nccc(N(C)C)c3C(=O)C2N=C1 (stereo not drawn) [listing 2 of 2 here] | 5.51

Test system: HCT-116
Experiment: Cytotoxicity against human HCT116 cells after 48 hrs by MTT assay
Type: functional, cell-based
Settings: HCT-116, 48 h

Row | Structure (SMILES) | pIC50
44 | CCCCCCSC1=C(SCCCCCC)C(=O)c2c(O)c3c(c(O)c2C1=O)C[C@](C)(O)[C@H](O)[C@H]3O | 6.13
45 | C[C@]1(O)Cc2c(O)c3c(c(O)c2C[C@H]1O)C(=O)C=C(NCc1ccc(F)cc1)C3=O | 5.15
46 | O=C1c2cccc(O)c2C(=O)c2c(O)cc(Cn3cc(F)c(=O)[nH]c3=O)cc21 | 5.55
47 | Cn1c2c(c3ccccc31)CCC(CN1CCOCC1)C2=O (stereo not drawn) | 5.33
48 | CCCCn1c2c(c3ccccc31)CCC(CN1CCOCC1)C2=O (stereo not drawn) | 5.24
49 | CC(=O)O[C@@H]1[C@H](C)CC(O)=C2C(=O)c3c(ccc(-c4ccc5c(c4O)C(=O)C4=C(O)C[C@@H](C)[C@@H](OC(C)=O)[C@@]4(CO)O5)c3O)O[C@@]21CO [DICERANDROL A] | 5.58
50 | CCCCNC1=CC(=O)c2c(O)c3c(c(O)c2C1=O)C[C@](C)(O)[C@H](O)C3 | 5.48
51 | CCSC1=C(SCC)C(=O)c2c(O)c3c(c(O)c2C1=O)C[C@](C)(O)[C@H](O)[C@H]3O | 6.02
52 | CCN(C)CC1CCc2c(n(C)c3ccccc23)C1=O (stereo not drawn) | 4.93
53 | C[C@]1(O)Cc2c(O)c3c(c(O)c2[C@H](O)[C@H]1O)C(=O)C=C(Nc1ccccc1)C3=O | 5.32
54 | CCCCCCSC1=C(SCCCCCC)C(=O)c2c(O)c3c(c(O)c2C1=O)C[C@@H](O)[C@@](C)(O)C3 | 5.53
55 | COC1=CC(=O)c2c(cc3c(c2O)C[C@@H](O)[C@@](C)(O)C3)C1=O [NIGROSPORIN B] | 5.33
56 | CCCCSC1=C(SCCCC)C(=O)c2c(O)c3c(c(O)c2C1=O)C[C@@H](O)[C@@](C)(O)C3 | 5.56
57 | C[C@]1(O)Cc2c(O)c3c(c(O)c2[C@H](O)[C@H]1O)C(=O)C=C(NCc1ccc(F)cc1)C3=O | 5.31
58 | Nc1ncnc2c1ncn2Cc1cc(O)c2c(c1)C(=O)c1cccc(O)c1C2=O | 5.11
59 | CO[C@H]1[C@H](O)C[C@@H](O[C@@H]2C[C@H](Oc3cc4cc5c(c(O)c4c(O)c3C)C(=O)[C@@H](O[C@H]3C[C@H](O[C@H]4C[C@H](O[C@H]6C[C@@](C)(O)[C@@H](OC(C)=O)[C@H](C)O6)[C@H](O)[C@@H](C)O4)[C@H](O)[C@@H](C)O3)[C@H]([C@H](OC)C(=O)[C@@H](O)[C@@H](C)O)C5)O[C@H](C)[C@H]2OC(C)=O)O[C@@H]1C | 6.52
60 | CC(C)=CCn1c2c(c3ccccc31)CCC(CN1CCOCC1)C2=O (stereo not drawn) | 5.34
61 | Cn1c2c(c3ccccc31)CCC(Cn1ccnc1)C2=O (stereo not drawn) | 5.51

Row | Structure (SMILES) | pIC50
62 | CNC1=CC(=O)c2c(O)c3c(c(O)c2C1=O)C[C@](C)(O)[C@H](O)C3 | 4.78
63 | CC(=O)OC[C@]12Oc3ccc(-c4ccc(O)c5c4O[C@@]4(CO)C(=C(O)C[C@@H](C)[C@H]4OC(C)=O)C5=O)c(O)c3C(=O)C1=C(O)C[C@@H](C)[C@H]2OC(C)=O | 5.16
64 | CN1CCN(CC2CCc3c(n(C)c4ccccc34)C2=O)CC1 (stereo not drawn) | 4.86
65 | COC1=CC(=O)c2c(O)c3c(c(O)c2C1=O)C[C@](C)(O)[C@H](O)[C@H]3O [BOSTRYCIN] | 5.32
66 | CC1CCN(C2=CC(=O)c3c(O)c4c(c(O)c3C2=O)C[C@](C)(O)[C@H](O)[C@H]4O)CC1 | 5.49
67 | CCOC(=O)CN(C)CC1CCc2c(n(C)c3ccccc23)C1=O (stereo not drawn) | 4.72
68 | CC1CCN(C2=CC(=O)c3c(O)c4c(c(O)c3C2=O)C[C@](C)(O)[C@H](O)C4)CC1 | 4.83
69 | O=c1c2ccc(O)cc2oc2cc(O)cc(O)c12 | 4.70
70 | C[C@]1(O)Cc2c(O)c3c(c(O)c2[C@H](O)[C@H]1O)C(=O)C(SCCCO)=C(SCCCO)C3=O | 5.51
71 | Cc1nccc2c3ccccc3n(CCCCn3c4ccccc4c4ccnc(C)c43)c12 | 5.45
72 | CC(C)=CCc1c(O)cc(O)c2c(=O)c3c(O)cccc3oc12 | 4.97
73 | Cn1c2c(c3ccccc31)CCC(CN1CCCC1)C2=O (stereo not drawn) | 4.89
74 | CC(=O)OC[C@]12Oc3ccc(-c4ccc5c(c4O)C(=O)C4=C(O)C[C@@H](C)[C@@H](OC(C)=O)[C@@]4(CO)O5)c(O)c3C(=O)C1=C(O)C[C@@H](C)[C@H]2OC(C)=O [DICERANDROL B] | 5.40
75 | O=c1c2ccc(O)c(O)c2oc2cc(O)cc(O)c12 | 4.73
76 | COc1cc(O)c2c(c1)C(=O)C1=C(C[C@@H](O)[C@@](C)(O)[C@@H]1O)C2=O [ALTERSOLANOL C] | 5.52
77 | CCCCCCOc1cccc2c1C(=O)c1c(OCCCCCC)cc(Cn3cnc4c(N)ncnc43)cc1C2=O | 5.09
78 | Cn1c2c(c3ccccc31)CCC(CN1CCCCC1)C2=O (stereo not drawn) | 5.63

— ChEMBL document CHEMBL4316584, “All that glitters is not gold: Panning cytotoxic natural products and derivatives with a fused tricyclic backbone by the estimation of their leadlikeness for cancer treatment” (Eur J Med Chem, 2019)
